In patent EP0514275A1, “Thiopyranopyrrole derivatives, their preparation and pharmaceutical compositions containing them” (RHONE-POULENC RORER S.A., priority 1991, dated 1992):

Legend:
[1] = system: substance P; experiment: Antagonism of substance P-induced hypotension (technique of C.A. Maggi et al.); assay type: in vivo; settings: rat; 1 mg/kg i.v./mn for 5 mn; hypotension induced by i.v. injection of 250 mg/kg of substance P
Protocol: L'injection de substance P chez l'animal provoque une hypotension. Les produits étudiés dans la technique de C.A. Maggi et coll., J. Auton. Pharmac., 7, 11-32 (1987) manifestent un effet antagoniste chez le rat vis-à-vis de cette hypotension. Notamment les produits administrés à la dose de 1 mg/kg i.v./mn, pendant 5 mn, provoquent un antagonisme de l'hypotension induite par une injection i.v. de […] de substance P.

[2] = system: septide (agoniste de la substance P); experiment: Inhibition of septide-induced increase in capillary permeability (technique of A. Saria et al. adapted to the mouse); assay type: in vivo, souris; settings: sc, capillary permeability increase caused by septide, read-out: DE50 mg/kg s.c.
Source text: L'étude de plusieurs dérivés de thiopyranopyrrole de formule générale (I) dans la technique de A. Saria et coll., Arch. Pharmacol.,324, 212-218 (1983) adaptée à la souris a permis de mettre en évidence un effet inhibiteur de l'augmentation de la perméabilité capillaire entraîné par le septide (agoniste de la substance P, ce qui témoigne d'une activité anti-inflammatoire : […]

[3] = Analgesic activity (technique of Siegmund E. et al.); assay type: in vivo; settings: po, read-out: DE50 mg/kg p.o.
Source text: II a notamment été mis en évidence, par l'étude de plusieurs produits que les nouveaux dérivés de thiopyranopyrrole manifestent une activité analgésique dans la technique de Siegmund E. et coll., Proc. Soc. Exp. Biol. Med., 95, 729 (1957).

Question: With COc1ccccc1[C@H](C)C(=O)N1C[C@@H]2[C@H](C1)[S@+]([O-])CCC2(c1ccccc1)c1ccccc1 (single isomer, unassigned) [Exemple 10, [(-)-(méthoxy-2 phényl)-2 propionyl-(S) ] -6 diphényl-4,4 oxyde-1 erhydrothiopyrano[2,3-c]pyrrole-(1R*, 4aR*, 7aR*)] as the compound, how does the “% d'inhibition de l'hypotension” value [1] read?
Answer: 100%

Question: What about the ED50 [2] of the same compound?
Answer: < 0.1 mg/kg

Question: What about the ED50 [3] of the same compound?
Answer: 1.7 mg/kg

Question: What does the source list for CN(C)CCCOc1ccccc1CC(=O)N1C[C@@H]2[C@H](C1)[S@+]([O-])CCC2(c1ccccc1)c1ccccc1 (single isomer, unassigned) [Exemple 8, (-)-{[(diméthylamino-3 propoxy-2)phényl]-2 acétyl}-6 diphényl-4,4 oxyde-1 perhydrothiopyrano [2,3-c]pyrrole-(1R*,4aR*,7aR*)]?
Answer: % d'inhibition de l'hypotension [1]: 100%; ED50 [2]: 0.05 mg/kg

Question: Which ED50 [3] does the source give for CN(C)CCCOc1ccccc1CC(=O)N1C[C@@H]2[C@H](C1)[S@+]([O-])CCC2(c1ccccc1)c1ccccc1 (racemic) [Exemple 7, {[(diméthylamino-3 propoxy-2)phényl]acétyl}-6 diphényl-4,4 oxyde-1 perhydrothiopyrano [2,3-c]pyrrole-(1RS,4aRS,7aRS)] here?
Answer: 3 mg/kg
